Measurements from paper PMC8880361, “Design, Molecular Docking, Synthesis, Anticancer and Anti-Hyperglycemic Assessments of Thiazolidine-2,4-diones Bearing Sulfonylthiourea Moieties as Potent VEGFR-2 Inhibitors and PPARγ Agonists” (Pharmaceuticals, 2022).

Legend:
VEGFR-2 = VEGFR-2 (Homo sapiens, UniProt P35968); assay: In vitro VEGFR-2 kinase assay (anti-phosphotyrosine antibody, Alpha Screen system); type: biochemical; details: mean ± S.D. of triplet separate experiments
HepG2 = assay: In vitro cytotoxicity, MTT colorimetric assay; type: cell-based, human; details: for IC50: Homo sapiens, HepG2, MTT, mean ± S.D. of triplet separate experiments; for fold more toxic against HepG2 than normal VERO cells: ratio VERO vs HepG2
HCT116 = assay: In vitro cytotoxicity, MTT colorimetric assay; type: cell-based, human; details: for IC50: Homo sapiens, HCT-116, MTT, mean ± S.D. of triplet separate experiments; for fold more toxic in HCT-116 than in normal VERO cells: ratio VERO vs HCT-116
MCF-7 = assay: In vitro cytotoxicity, MTT colorimetric assay; type: cell-based, human; details: for IC50: Homo sapiens, MCF7, MTT, mean ± S.D. of triplet separate experiments; for fold higher toxicity in MCF-7 than in normal VERO cells: ratio VERO vs MCF-7
PPARγ = biological target: T1, PPARγ (Homo sapiens, UniProt P37231); assay: In vitro PPARγ ligand binding assay (Fluorescence Polarization); details: concentration required to displace 50% of the titrated ligand; n = 3; read-out: IC50 PPARγ Binding Affinity
T1 sequence (P37231 1-505): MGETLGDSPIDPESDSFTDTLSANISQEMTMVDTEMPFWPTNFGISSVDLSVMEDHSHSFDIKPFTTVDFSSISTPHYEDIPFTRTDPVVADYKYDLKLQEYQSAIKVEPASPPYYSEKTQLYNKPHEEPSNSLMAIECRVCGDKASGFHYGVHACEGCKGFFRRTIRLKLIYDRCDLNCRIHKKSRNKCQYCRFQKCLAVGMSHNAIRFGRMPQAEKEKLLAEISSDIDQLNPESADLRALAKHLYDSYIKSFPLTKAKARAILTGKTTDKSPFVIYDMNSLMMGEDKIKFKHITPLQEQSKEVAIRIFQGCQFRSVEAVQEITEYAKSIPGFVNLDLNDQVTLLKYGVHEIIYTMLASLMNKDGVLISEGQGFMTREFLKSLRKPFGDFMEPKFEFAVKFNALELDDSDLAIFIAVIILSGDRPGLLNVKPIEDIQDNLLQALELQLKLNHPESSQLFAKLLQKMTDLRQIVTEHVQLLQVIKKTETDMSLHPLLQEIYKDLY

[1] = test system: isolated pancreatic islets of rats; assay: In vitro insulin secretion assay (sandwich enzyme immunoassay); type: cell-based; details: Pancreatic islet; isolated rat pancreatic islets; concentration for 50% of the maximum action; n = 3; read-out: EC50 Insulin Secreting Activity
Description: Compounds 5a–c, 6a–c and 7a–c were also assessed to establish their insulin-secretion activities in vitro against isolated pancreatic islets of rats through the quantitative sandwich technique of enzyme immunoassay. Glimiperide was applied as the standard. The findings are described as the EC50 values (Table 4).

VERO normal cell lines = assay: Cytotoxicity against normal cells; type: cell-based; details: Chlorocebus sabaeus, mean ± S.D. of triplet separate experiments
Description: The cytotoxic effects of the prepared derivatives against the malignant cell lines ranged from 5.77 to 17.65 μM. Derivatives 6a–c and 7a–c were, respectively, 3.41-, 3.83-, 6.93-, 4.99-, 5.45- and 7.74-fold times more toxic against HepG2 than normal VERO cells. Similarly, derivatives 6a-c and 7a-c were, respectively, 2.74-, 2.97-, 6.04-, 3.58-, 3.90- and 11.83-fold more toxic in HCT-116 than in normal VERO cells.

Chain of VEGFR-2 (P35968 20-1356): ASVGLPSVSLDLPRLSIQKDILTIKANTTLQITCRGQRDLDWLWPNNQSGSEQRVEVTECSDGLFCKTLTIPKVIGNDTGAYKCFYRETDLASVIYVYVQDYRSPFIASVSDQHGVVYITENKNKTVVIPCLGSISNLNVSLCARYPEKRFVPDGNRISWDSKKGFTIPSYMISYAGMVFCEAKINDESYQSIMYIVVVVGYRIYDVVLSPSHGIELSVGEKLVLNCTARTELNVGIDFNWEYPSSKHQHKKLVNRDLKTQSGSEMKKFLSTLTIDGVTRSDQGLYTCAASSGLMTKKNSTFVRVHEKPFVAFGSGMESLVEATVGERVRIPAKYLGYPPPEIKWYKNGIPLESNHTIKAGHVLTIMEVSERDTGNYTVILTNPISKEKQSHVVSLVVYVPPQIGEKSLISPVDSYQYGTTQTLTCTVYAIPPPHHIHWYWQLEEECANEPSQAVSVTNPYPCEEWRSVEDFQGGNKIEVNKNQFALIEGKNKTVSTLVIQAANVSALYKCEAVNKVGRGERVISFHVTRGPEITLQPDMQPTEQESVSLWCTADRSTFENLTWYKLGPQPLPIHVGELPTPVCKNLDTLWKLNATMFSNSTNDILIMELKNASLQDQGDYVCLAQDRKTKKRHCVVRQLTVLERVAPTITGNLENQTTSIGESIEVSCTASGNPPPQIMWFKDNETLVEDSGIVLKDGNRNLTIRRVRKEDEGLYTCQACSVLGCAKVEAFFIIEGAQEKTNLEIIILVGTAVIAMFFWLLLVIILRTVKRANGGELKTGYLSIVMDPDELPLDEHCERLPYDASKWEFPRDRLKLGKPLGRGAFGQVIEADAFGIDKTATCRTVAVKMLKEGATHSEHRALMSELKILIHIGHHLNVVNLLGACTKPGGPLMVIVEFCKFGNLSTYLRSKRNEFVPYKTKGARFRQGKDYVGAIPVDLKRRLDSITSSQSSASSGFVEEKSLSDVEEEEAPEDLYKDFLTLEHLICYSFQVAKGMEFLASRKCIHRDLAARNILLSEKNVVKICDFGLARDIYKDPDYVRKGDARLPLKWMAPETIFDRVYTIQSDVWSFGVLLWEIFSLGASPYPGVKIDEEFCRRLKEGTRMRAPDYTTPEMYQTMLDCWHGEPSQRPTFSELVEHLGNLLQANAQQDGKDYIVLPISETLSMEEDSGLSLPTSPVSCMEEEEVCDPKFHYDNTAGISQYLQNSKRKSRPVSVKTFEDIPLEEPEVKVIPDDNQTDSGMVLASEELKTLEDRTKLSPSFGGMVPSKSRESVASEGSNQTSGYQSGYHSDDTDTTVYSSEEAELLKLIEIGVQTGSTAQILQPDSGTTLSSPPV

Row | IC50 (VEGFR-2) [µM] | melting point [°C] | IC50 (PPARγ) [µM] | EC50 [1] [µM] | SMILES | IC50 (HepG2) [µM] | IC50 (HCT116) [µM] | IC50 (MCF-7) [µM] | IC50 (VERO normal cell lines) [µM] | fold more toxic against HepG2 than normal VERO cells (HepG2) [fold] | fold more toxic in HCT-116 than in normal VERO cells (HCT116) [fold] | fold higher toxicity in MCF-7 than in normal VERO cells (MCF-7) [fold]
1 | 0.46 ± 0.05 |  | 0.393 | 1.2 | CCNC(=S)NS(=O)(=O)c1ccc(NC(=O)CN2C(=O)CSC2=O)cc1 [Compound 5a, 2-(2,4-Dioxothiazolidin-3-yl)-N-(4-(N-(ethylcarbamothioyl)sulfamoyl)phenyl)acetamide] | 24.5 ± 2.2 | 40.1 ± 2.2 | 28.8 ± 2.2 |  |  |  | 
2 | 0.44 ± 0.05 | 262 to 264 | 0.377 | 1.13 | O=C(CN1C(=O)CSC1=O)Nc1ccc(S(=O)(=O)NC(=S)Nc2ccccc2)cc1 [Compound 5b, 2-(2,4-Dioxothiazolidin-3-yl)-N-(4-(N-(phenylcarbamothioyl)sulfamoyl)phenyl)acetamide] | 22 ± 2 | 25.7 ± 2 | 23.2 ± 2 |  |  |  | 
3 | 0.44 ± 0.05 | 267 to 269 | 0.36 | 1 | O=C(CN1C(=O)CSC1=O)Nc1ccc(S(=O)(=O)NC(=S)NC2CCCCC2)cc1 [Compound 5c, N-(4-(N-(Cyclohexylcarbamothioyl)sulfamoyl)phenyl)-2-(2,4-dioxothiazolidin-3-yl)acetamide] | 20.8 ± 2.6 | 23.6 ± 2.6 | 24.6 ± 2.6 |  |  |  | 
4 | 0.17 ± 0.02 | 282 to 284 | 0.323 | 0.87 | CCNC(=S)NS(=O)(=O)c1ccc(NC(=O)CN2C(=O)SC(=Cc3ccccc3)C2=O)cc1 [Compound 6a, 2-(5-Benzylidene-2,4-dioxothiazolidin-3-yl)-N-(4-(N-(ethylcarbamothioyl)sulfamoyl)phenyl)acetamide] | 14.2 ± 2.3 | 17.7 ± 2.3 | 16.5 ± 2.3 | 48.31 ± 0.22 | 3.41 | 2.74 | 2.93
5 | 0.15 ± 0.02 | 286 to 288 | 0.308 | 0.78 | O=C(CN1C(=O)SC(=Cc2ccccc2)C1=O)Nc1ccc(S(=O)(=O)NC(=S)Nc2ccccc2)cc1 [Compound 6b, 2-(5-Benzylidene-2,4-dioxothiazolidin-3-yl)-N-(4-(N-(phenylcarbamothioyl)sulfamoyl)phenyl)-acetamide] | 10.7 ± 1.6 | 13.8 ± 1.2 | 13 ± 1.2 | 40.88 ± 0.22 | 3.83 | 2.97 | 3.16
6 | 0.14 ± 0.02 | 285 to 287 | 0.32 | 0.81 | CCNC(=S)NS(=O)(=O)c1ccc(NC(=O)CN2C(=O)SC(=Cc3ccc(C)cc3)C2=O)cc1 [Compound 7a, N-(4-(N-(Ethylcarbamothioyl)sulfamoyl)phenyl)-2-(5-(4-methylbenzylidene)-2,4-dioxothiazolidin-3-yl)acetamide] | 12.1 ± 1.5 | 16.8 ± 1.5 | 16.7 ± 1.5 | 60.12 ± 0.18 | 4.99 | 3.58 | 3.61

The next lines start with the molecule.

Row | SMILES | IC50 (VEGFR-2) [µM] | melting point [°C] | IC50 (PPARγ) [µM] | EC50 [1] [µM] | IC50 (HepG2) [µM] | IC50 (HCT116) [µM] | IC50 (MCF-7) [µM] | IC50 (VERO normal cell lines) [µM] | fold more toxic against HepG2 than normal VERO cells (HepG2) [fold] | fold more toxic in HCT-116 than in normal VERO cells (HCT116) [fold] | fold higher toxicity in MCF-7 than in normal VERO cells (MCF-7) [fold]
7 | NS(=O)(=O)c1ccc(NC(=O)CN2C(=O)CSC2=O)cc1 [Compound 3, 2-(2,4-Dioxothiazolidin-3-yl)-N-(4-Sulfamoylphenyl)-Acetamide] | 0.93 ± 0.06 |  |  |  | 58.6 ± 5.1 | 61.5 ± 5.1 | 60.2 ± 5.1 |  |  |  | 
8 | NS(=O)(=O)c1ccc(NC(=O)CN2C(=O)SC(=Cc3ccccc3)C2=O)cc1 [Compound 4a, 2-(5-Benzylidene-2,4-dioxothiazolidin-3-yl)-N-(4-sulfamoylphenyl)acetamide] | 0.92 ± 0.06 | 226 to 228 |  |  | 52.9 ± 5.1 | 55.1 ± 5.1 | 55 ± 5.1 |  |  |  | 
9 | Cc1ccc(C=C2SC(=O)N(CC(=O)Nc3ccc(S(N)(=O)=O)cc3)C2=O)cc1 [Compound 4b, 2-(5-(4-Methylbenzylidene)-2,4-dioxothiazolidin-3-yl)-N-(4-sulfamoylphenyl)acetamide] | 0.89 ± 0.06 | 240 to 242 |  |  | 48.6 ± 5.1 | 57.9 ± 5.1 | 62.4 ± 5.1 |  |  |  | 
10 | O=C(CN1C(=O)SC(=Cc2ccccc2)C1=O)Nc1ccc(S(=O)(=O)NC(=S)NC2CCCCC2)cc1 [Compound 6c, 2-(5-Benzylidene-2,4-dioxothiazolidin-3-yl)-N-(4-(N-(cyclohexylcarbamothioyl)sulfamoyl)phenyl)-acetamide] | 0.08 ± 0.02 |  | 0.3 | 0.7 | 8.99 ± 1.2 | 7.11 ± 1.7 | 8.15 ± 1.6 | 49.26 ± 0.22 | 6.93 | 6.04 | 
11 | Cc1ccc(C=C2SC(=O)N(CC(=O)Nc3ccc(S(=O)(=O)NC(=S)Nc4ccccc4)cc3)C2=O)cc1 [Compound 7b, 2-(5-(4-Methylbenzylidene)-2,4-dioxothiazolidin-3-yl)-N-(4-(N-(phenylcarbamothioyl)sulfamoyl)-phenyl)acetamide] | 0.11 ± 0.02 |  | 0.305 | 0.75 | 9.65 ± 1.7 | 13.5 ± 1.6 | 12.9 ± 1.7 | 52.61 ± 0.22 | 5.45 | 3.90 | 4.08
12 | Cc1ccc(C=C2SC(=O)N(CC(=O)Nc3ccc(S(=O)(=O)NC(=S)NC4CCCCC4)cc3)C2=O)cc1 [Compound 7c, N-(4-(N-(Cyclohexylcarbamothioyl)sulfamoyl)phenyl)-2-(5-(4-methylbenzylidene)-2,4-dioxothiazolidin-3-yl)acetamide] | 0.08 ± 0.02 |  | 0.296 | 0.7 | 8.82 ± 1.9 | 5.77 ± 1.9 | 7.78 ± 1.9 | 68.25 ± 0.21 | 7.74 | 11.83 | 8.77
13 | COc1cccc2c1C(=O)c1c(O)c3c(c(O)c1C2=O)C[C@@](O)(C(=O)CO)C[C@@H]3O[C@H]1C[C@H](N)[C@H](O)[C@H](C)O1 [Doxorubicin, reference compound] |  |  |  |  | 7.94 ± 0.6 |  | 6.75 ± 0.4 |  |  |  | 
14 | CCC1=C(C)CN(C(=O)NCCc2ccc(S(=O)(=O)NC(=O)N[C@H]3CC[C@H](C)CC3)cc2)C1=O [Glimiperide, reference compound] |  |  |  | 0.73 |  |  |  |  |  |  | 
